Experimental data reported in patent publication US12325866B2, “Systems and methods for growing cells in vitro” (Yissum Research Development Company of the Hebrew …, priority 2016, dated 2025).

Columns and labels:
CSIF [1] = assay: Conversion of CSIF to adipocytes in serum-free medium (LipidTOX neutral lipid stain); type: cell-based, chicken
Procedure: FIGS. 4A-D depict conversion of CSIF to adipocytes in serum-free medium. FIGS. 4A-C. LipidTOX™ (Thermo Fisher Scientific) neutral lipid stain of serum-free cultures of CSIF exposed to either 400 μM oleic acid (OA) alone (FIG. 4A) or with 0.5 mM IBMX (OA+IBMX, FIG. 4B), or 10 μM Rosiglitazone (OA+TZD, FIG. 4C) for 7 days. […] FIG. 4D—Normalized intracellular lipid content (in arbitrary fluorescent units) of CSIF cultures treated for 4 and 7 days as prescribed above.
To develop a protocol for conversion of the spontaneously immortalized chicken fibroblasts (CSIF line) under serum-free conditions, the present inventor seeded the CSIF at 70% confluence in the optimized serum-free DMEM/F12 medium supplemented with dexamethasone (0.1 μM), 1×ITS+3 (Sigma, 12771), and bFGF (10 ng/ml). The CSIF cells were treated for 4 or 7 days with 200 to 400 μM oleic acid alone, or in combination with 0.5 mM IBMX, or 10 μM of the FDA-approved small molecule Rosiglitazone.

[2] = system: stromal-vascular cells derived from chicken adipose tissues; conditions: oleic acid 200-400 μM, in the presence of serum; cited from earlier work
CSIF [3] = assay: Serum-free medium development: sulforhodamine B stain and protein content after 72 hours; type: cell-based, chicken; conditions: for Effect on CSIF growth / proliferation: supplement added to minimal serum-free medium, bFGF 10 ng/ml, EGF 5 ng/ml, PGE2 0.01 μM, GH 10 ng/ml
Procedure: FIGS. 3A-F depict the development and identification of serum-free medium for CSIF propagation. Shown are sulforhodamine B stain (FIGS. 3A-E) and protein content quantification (FIG. 3F) following 72 hours of culture with 15% serum (“FBS”), minimal serum-free medium (MIN) alone (FIG. 3B) or with 10 ng/ml basic Fibroblast Growth Factor (bFGF, FIG. 3C), 5 ng/ml Epidermal Growth Factor (EGF, FIG. 3D), 0.01 μM Prostaglandin E2 (PGE2, FIG. 3E), or 10 ng/ml Growth Hormone. Serum-free medium (SFM) contained MIN medium supplemented with bFGF (10 ng/ml), EGF (5 ng/ml), and PGE2 ([…]).
(§1) To develop a serum-free medium that supports the culture of CEF and CS IF, the present inventor formulated a minimal medium composed of DMEM/F12 supplemented with 0.1 μM dexamethasone, 10 μg/ml insulin, 5.5 μg/ml transferrin, and 5 ng/ml selenium (ITS), 12 μM linoleic and 12 μM oleic acids, and 2 mM of L-Analyl-L-Glutamine. Cells were plated in FBS containing medium, and transferred to minimal medium after overnight attachment. Basal medium was supplemented with growth factors and hormones showing that while heparin and T3 had little effect of CSIF growth (data not shown), the addition of basic Fibroblast Growth Factor (bFGF, 10 ng/ml) was essential (FIGS. 3C and 3F), showing 20±2 hours doubling time (data not shown).

[4] = system: primary chicken embryonic fibroblasts (CEF); assay: Proliferation of primary CEF in serum-free media / with supplements; type: cell-based; conditions: serum-free medium, or minimal medium plus supplement (EGF 5 ng/ml, PGE2 0.01 μM, GH 10 ng/ml)
Procedure: as §1, with “The CSIFs readily grow on tissue culture plastic in DMEM/F12 medium supplemented with 15% FBS, and 2 mM of […] (FIG. 2D). There are several serum-free medium formulations for the growth of human and mouse fibroblasts, including PCS-201-040 (ATCC) and […] To” for “To”, “[…].” for “L-Analyl-L-Glutamine.”

CSIF [5] = assay: Dox-induced MyoD1+MYOG conversion to myocytes, rMLC3-GFP reporter; type: cell-based, chicken; conditions: Dox-induced MyoD1+MYOG expression for 11 or 30 days
Excerpt: FIGS. 5A-E depict conversion of CSIF to myocytes. FIG. 5A—Phase image of CSIF expressing Dox-inducible MyoD1 and Myogenin (MYOG) for 6 days (“d6”). FIGS. 5B-C—CSIF expressing rat myosin light chain COP-GFP reporter (rMLC3-GFP) following Dox-induced MyoD1+MYOG expression for 11 days (FIG. 5B) or 30 days (FIG. 5C). About 2-4% of the cultures become positive for MLC3 (Green). MLC3 positive myoblasts maintain elongated fiber morphology for over 30 days in vitro (FIG. 5C). FIG. 5D—Fluorescence staining using phalloidin (F-Actin probe, green) showing multinucleated cells (syncytia) as well as some striation following 7 days in culture. Nuclei are stained with Hoechst (blue). FIG. 5E—Immunofluorescence staining for α1-skeletal muscle actin (ACTA1, green) and Troponin T (red) showing a clear muscle phenotype by day 7 of induction. Nuclei are stained with Hoechst (blue).
To examine if similar conversion of chicken cells to myocytes is possible, the present inventor generated several nucleic acid constructs (vectors) as is schematically illustrated in FIGS. 6-8 and 12. […] A second lentiviral vector (SEQ ID NO:2, FIG. 7) was created for Dox-inducible chicken MYOG expression included the cMyogenin coding sequence (SEQ ID NO: 7) under the control of the minimal CMV promoter (SEQ ID NO: 8). […]

primary CEF = conditions: oleic acid 400 μM with 20% serum; selenium 100-300 μg/l with 2% serum; cited from earlier work

CC(C)Cn1c(=O)n(C)c(=O)c2[nH]cnc21 [IBMX, 3-isobutyl-1-methylxanthine]
Normalized intracellular lipid content (CSIF [1]; 4 and 7 days, 400 μM OA with small molecule (FIG. 4D)): optimal results | Adipogenesis (neutral lipid stain) (CSIF [1]; 7 days, with 400 μM oleic acid, IBMX 0.5 mM, Rosiglitazone 10 μM): strong adipogenesis | Adipogenic phenotype (cell shape) (CSIF [1]; added to oleic acid, IBMX 0.5 mM, Rosiglitazone 10 μM): supported a rounded adipogenic phenotype | Differentiation of chicken preadipocytes to adipocytes [2]: no affect

CCCCC[C@H](O)/C=C/[C@H]1[C@H](O)CC(=O)[C@@H]1C/C=C\CCCC(=O)O [PGE2, Prostaglandin E2]
Effect on CSIF growth / proliferation (CSIF [3]): supported the proliferation | Proliferation of primary CEF [4]: supported the proliferation

N[C@@H](Cc1cc(I)c(Oc2ccc(O)c(I)c2)c(I)c1)C(=O)O [T3]
Effect on CSIF growth / proliferation (CSIF [3]): little effect

C[C@H]1c2cccc(O)c2C(=O)C2=C(O)[C@]3(O)C(=O)C(C(N)=O)=C(O)[C@@H](N(C)C)[C@@H]3[C@@H](O)[C@@H]21 [doxycycline, Doxycycline]
Cultures positive for MLC3 (CSIF [5]): 2-4%

CCCCCCCC/C=C\CCCCCCCC(=O)O [oleic acid]
Lipid accumulation in primary CEF (primary CEF): induced lipid accumulation | Lipid accumulation (CSIF [1]; 200 to 400 μM oleic acid, 4 or 7 days, serum-free): increased lipid accumulation | Differentiation of chicken preadipocytes to adipocytes [2]: induces their differentiation to adipocytes

GH: Growth Hormone
Effect on CSIF growth / proliferation (CSIF [3]): supported the proliferation | Proliferation of primary CEF [4]: supported the proliferation

bFGF: basic fibroblast growth factor
Doubling time (CSIF [3]; minimal medium plus bFGF 10 ng/ml (data not shown)): 20 ± 2 h | Effect on CSIF growth / proliferation (CSIF [3]): essential

heparin
Effect on CSIF growth / proliferation (CSIF [3]): little effect
